What was measured:
[1] = Steady-state pharmacokinetics in healthy young and elderly subjects
[2] = system: ventricular repolarization, as measured by prolongation of the QT interval; experiment: QT interval prolongation study in healthy young and elderly subjects
[3] = steady state (Days 7-9), ≧18 to ≦45 yrs (N = 16)

Compound	increase in rate and extent of absorption, elderly compared to younger subjects ([1]; after formulation 3A, steady state)	T1/2, least squares mean ([1]; steady state (Days 7-9), ≧65 to ≦80 yrs (N = 15))	QTcI difference between the elderly and young between quinine and placebo (baseline adjusted) ([2]; 30 minutes post dose)	QTcI difference between the elderly and young between quinine and placebo (baseline adjusted) ([2]; 48 hours post dose)	increase of QTcI over placebo ([2]; for the first 6 hours after dosing)	subjects with a QTcI greater than 500 msec ([2]; in vivo)	subjects with a maximum QTcI change from baseline of greater than 60 msec ([2]; in vivo)	maximal increase of QTcI over placebo ([2]; one hour post dose)	upper bound of the one sided confidence interval of maximal QTcI increase over placebo ([2]; one hour post dose)	QTcI difference between the elderly and young, mean increase ([2]; over 48 hours)	effect of age on QTc interval prolongation ([2]; patients ≧65 years v. younger patients)	increase of QTcI over placebo ([2]; up to 14 hours after dosing)	AUC(ss), least squares mean [1, 3]	Tmax(ss), least squares mean [1, 3]
C=C[C@@]1(O)CN2CC[C@H]1C[C@H]2[C@H](O)c1ccnc2ccc(OC)cc12 [3-OH Quinine, 3-hydroxyquinine]	approximately 25%	18.7 h	–	–	–	–	–	–	–	–	–	–	–	–
C=C[C@H]1C[N@@]2CC[C@H]1C[C@H]2[C@H](O)c1ccnc2ccc(OC)cc12 [Quinine, cinchonan-9-ol, 6′-methoxy-, (8α,9R)-]	–	–	10.06 ms	-1.92 ms	above 20 msec	No subject	No subject	28.3 ms	31.83 ms	3.92 ms	did not indicate that patients ≧65 years of age have significantly greater risk of QTc prolongation than younger patients	above 10 msecs	46100 ng·h/mL	7780 s
